The results in this text go back to patent US5110798A, “Purine derivatives having pharmacological action” (Co Pharma Corporation S.r.l., priority 1987, dated 1992).

This assay has as its system neurokinin receptors such as NK-P, NK-A and NK-B. The conditions noted are these: several in vitro models.

Regarding `CSCC[C@H](NC(=O)[C@H](CC(C)C)NC(=O)CNC(=O)OCCCCCn1cnc2c(=O)[nH]cnc21)C(=O)O` [Example 3], the neurokinin-like activity result is “showed neurokinin-like activity”.
